Measured values: US11535643B2, “Macrolides with modified desosamine sugars and uses thereof” (President and Fellows of Harvard College, priority 2015, dated 2022)
Values after ≈ are worked out from the molar mass of the structure shown. Read-outs that look alike come from different tables or passages of the source.

How the values were obtained:
Type in all cases: cell-based
S. aureus = test: Broth dilution MIC determination (CLSI) against S. aureus strains; conditions: for MIC: Staphylococcus aureus
In short: (§1)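 MICs were determined by CLSI standard broth dilution against several strains per species, including multidrug-resistant and macrolide-resistant strains. Azithromycin and solithromycin served as control compounds.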

S. pneumoniae = test: Broth dilution MIC determination (CLSI) against S. pneumoniae strains; conditions: for MIC: Streptococcus pneumoniae
In short: as §1

S. pyogenes = test: Broth dilution MIC determination (CLSI) against S. pyogenes strains; conditions: for MIC: Streptococcus pyogenes
In short: as §1

E. faecalis = test: Broth dilution MIC determination (CLSI) against E. faecalis strains; conditions: for MIC: Enterococcus faecalis
In short: as §1

E. coli = test: Broth dilution MIC determination (CLSI) against E. coli strains; conditions: for MIC: Escherichia coli
In short: as §1

A. baumannii = test: Broth dilution MIC determination (CLSI) against A. baumannii strains; conditions: for MIC: Acinetobacter baumannii
In short: as §1

K. pneumoniae = test: Broth dilution MIC determination (CLSI) against K. pneumoniae strains; conditions: for MIC: Klebsiella pneumoniae
In short: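 Azithromycin and solithromycin served as controls; MICs were obtained by standard CLSI broth dilution on a strain panel including multidrug-resistant and macrolide-resistant isolates.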

P. aeruginosa = test: Broth dilution MIC determination (CLSI) against P. aeruginosa strains; conditions: for MIC: Pseudomonas aeruginosa
In short: as §1

H. influenzae = test: Broth dilution MIC determination (CLSI) against H. influenzae strains; conditions: for MIC: Haemophilus influenzae
In short: as §1

[1] = ATCC29213, ATCC29213, read-out: MIC S. aureus ATCC29213
[2] = MRSA / USA100, MRSA: USA100, read-out: MIC S. aureus MRSA: USA100
[3] = MRSA / USA300, MRSA: USA300, read-out: MIC S. aureus MRSA: USA300
[4] = USA600, USA600, GISA, read-out: MIC S. aureus USA600, GISA
[5] = read-out: MIC S. aureus erm A genotype
[6] = ATCC49619, ATCC49619, read-out: MIC S. pneumoniae ATCC49619
[7] = erm B + mef A genotype, read-out: MIC S. pneumoniae erm B + mef A genotype
[8] = erm B + tet(M, O) genotype, read-out: MIC S. pneumoniae erm B + tet(M, O) genotype
[9] = ATCC19615, ATCC19615, read-out: MIC S. pyogenes ATCC19615
[10] = macrolide-resistant, read-out: MIC S. pyogenes macrolide-resistant
[11] = ATCC29212, ATCC29212, read-out: MIC E. faecalis ATCC29212
[12] = Vancomycin-resistant, read-out: MIC E. faecalis Vancomycin-resistant
[13] = ATCC25922, ATCC25922, read-out: MIC E. coli ATCC25922
[14] = read-out: MIC E. coli CTX-M-14, CTX-M-14
[15] = read-out: MIC E. coli NDM-1, NDM-1
[16] = read-out: MIC E. coli TEM-1, TEM-1
[17] = ATCC19606, ATCC19606, read-out: MIC A. baumannii ATCC19606
[18] = IMP-4, read-out: MIC A. baumannii IMP-4
[19] = chromosomal class C, read-out: MIC A. baumannii chromosomal class C
[20] = imipenem-resistant, read-out: MIC A. baumannii imipenem-resistant
[21] = ATCC10031, ATCC10031, read-out: MIC K. pneumoniae ATCC10031
[22] = KPC-2, read-out: MIC K. pneumoniae KPC-2
[23] = SHV-12, read-out: MIC K. pneumoniae SHV-12
[24] = TEM-10, read-out: MIC K. pneumoniae TEM-10
[25] = ATCC27853, read-out: MIC P. aeruginosa ATCC27853
[26] = read-out: MIC P. aeruginosa HPA101-1477
[27] = ATCC49247, ATCC49247, read-out: MIC H. influenzae ATCC49247
[28] = erythro > 4, azithro 1, read-out: MIC H. influenzae erythro > 4, azithro 1

CC[C@H]1OC(=O)[C@H](C)C(=O)[C@H](C)[C@@H](O[C@@H]2OC(Cn3cc(-c4cccc(N)n4)nn3)CC(N(C)C)C2O)[C@](C)(OC)C[C@@H](C)CN[C@H](C)[C@H]2N(CCCCn3cc(-c4cccc(N)c4)nn3)C(=O)O[C@]12C (stereo partly drawn) [FSM-22124]
MIC (S. aureus; [1]): 4 µg/mL (≈ 4.05 µM)
MIC (S. aureus; [2]): > 32 µg/mL
MIC (S. aureus; [3]): > 32 µg/mL
MIC (S. aureus; [4]): > 32 µg/mL
MIC (S. aureus; [5]): > 32 µg/mL
MIC (S. pneumoniae; [6]): ≤ 0.0312 µg/mL
MIC (S. pneumoniae; [7]): 0.5 µg/mL
MIC (S. pneumoniae; [8]): ≤ 0.0312 µg/mL
MIC (S. pyogenes; [9]): ≤ 0.0312 µg/mL
MIC (S. pyogenes; [10]): 2 µg/mL (≈ 2.03 µM)
MIC (E. faecalis; [11]): 0.25 µg/mL (≈ 0.253 µM)
MIC (E. faecalis; [12]): > 32 µg/mL
MIC (E. coli; [13]): 16 µg/mL (≈ 16.2 µM)
MIC (E. coli; [14]): > 32 µg/mL
MIC (E. coli; [15]): > 32 µg/mL
MIC (E. coli; [16]): 16 µg/mL (≈ 16.2 µM)
MIC (A. baumannii; [17]): 16 µg/mL (≈ 16.2 µM)
MIC (A. baumannii; [18]): > 32 µg/mL
MIC (A. baumannii; [19]): 16 µg/mL (≈ 16.2 µM)
MIC (A. baumannii; [20]): 16 µg/mL (≈ 16.2 µM)
MIC (K. pneumoniae; [21]): 4 µg/mL (≈ 4.05 µM)
MIC (K. pneumoniae; [22]): 32 µg/mL (≈ 32.4 µM)
MIC (K. pneumoniae; [23]): > 32 µg/mL
MIC (K. pneumoniae; [24]): 8 µg/mL (≈ 8.1 µM)
MIC (P. aeruginosa; [25]): > 32 µg/mL
MIC (P. aeruginosa; [26]): > 32 µg/mL
MIC (H. influenzae; [27]): 2 µg/mL (≈ 2.03 µM)
MIC (H. influenzae; [28]): 1 µg/mL (≈ 1.01 µM)

CC[C@H]1OC(=O)[C@H](C)C(=O)[C@H](C)[C@@H](O[C@@H]2OC(Cn3cc(-c4cnc(N)s4)nn3)CC(N(C)C)C2O)[C@](C)(OC)C[C@@H](C)CN[C@H](C)[C@H]2N(CCCCn3cc(-c4cccc(N)c4)nn3)C(=O)O[C@]12C (stereo partly drawn) [FSM-22125]
MIC (S. aureus; [1]): 4 µg/mL (≈ 4.03 µM)
MIC (S. aureus; [2]): > 32 µg/mL
MIC (S. aureus; [3]): > 32 µg/mL
MIC (S. aureus; [4]): > 32 µg/mL
MIC (S. aureus; [5]): > 32 µg/mL
MIC (S. pneumoniae; [6]): ≤ 0.0312 µg/mL
MIC (S. pneumoniae; [7]): > 32 µg/mL
MIC (S. pneumoniae; [8]): ≤ 0.0312 µg/mL
MIC (S. pneumoniae; read-out: MIC S. pneumoniae mef A genotype, mef A genotype): 4 µg/mL (≈ 4.03 µM)
MIC (S. pneumoniae; read-out: MIC S. pneumoniae mef A genotype, mef A genotype, first of two such columns (c3)): 0.5 µg/mL (≈ 0.503 µM)
MIC (S. pyogenes; [9]): ≤ 0.0312 µg/mL
MIC (S. pyogenes; [10]): 4 µg/mL (≈ 4.03 µM)
MIC (E. faecalis; [11]): 0.5 µg/mL (≈ 0.503 µM)
MIC (E. faecalis; [12]): > 32 µg/mL
MIC (E. coli; [13]): 32 µg/mL (≈ 32.2 µM)
MIC (E. coli; [14]): > 32 µg/mL
MIC (E. coli; [15]): > 32 µg/mL
MIC (E. coli; [16]): 16 µg/mL (≈ 16.1 µM)
MIC (A. baumannii; [17]): > 32 µg/mL
MIC (A. baumannii; [18]): > 32 µg/mL
MIC (A. baumannii; [19]): 32 µg/mL (≈ 32.2 µM)
MIC (A. baumannii; [20]): > 32 µg/mL
MIC (K. pneumoniae; [21]): 32 µg/mL (≈ 32.2 µM)
MIC (K. pneumoniae; [22]): > 32 µg/mL
MIC (K. pneumoniae; [23]): > 32 µg/mL
MIC (K. pneumoniae; [24]): 32 µg/mL (≈ 32.2 µM)
MIC (P. aeruginosa; [25]): > 32 µg/mL
MIC (P. aeruginosa; [26]): > 32 µg/mL
MIC (H. influenzae; [27]): 4 µg/mL (≈ 4.03 µM)
MIC (H. influenzae; [28]): 2 µg/mL (≈ 2.01 µM)

CC[C@H]1OC(=O)[C@H](C)C(=O)[C@H](C)[C@@H](O[C@@H]2OC(Cn3cc(-c4ccccn4)nn3)CC(N(C)C)C2O)[C@](C)(OC)C[C@@H](C)CN[C@H](C)[C@H]2N(CCCCn3cc(-c4cccc(N)c4)nn3)C(=O)O[C@]12C (stereo partly drawn) [FSM-22366]
MIC S. aureus ATCC29213 (S. aureus): 32 µg/mL (≈ 32.9 µM)
MIC S. aureus MRSA: USA100 (S. aureus): >32 µg/mL
MIC S. aureus MRSA: USA300 (S. aureus): >32 µg/mL
MIC S. aureus USA600, GISA (S. aureus): >32 µg/mL
MIC S. aureus erm A genotype (S. aureus): >32 µg/mL
MIC S. pneumoniae ATCC49619 (S. pneumoniae): <0.03125 µg/mL
MIC S. pneumoniae erm B + mef A genotype (S. pneumoniae; erm B + mef A genotype): >32 µg/mL
MIC S. pneumoniae erm B + tet(M, O) genotype (S. pneumoniae; erm B + tet(M, O) genotype): <0.03125 µg/mL
MIC S. pyogenes ATCC19615 (S. pyogenes): <0.03125 µg/mL
MIC S. pyogenes macrolide-resistant (S. pyogenes; macrolide-resistant): 1 µg/mL (≈ 1.03 µM)
MIC E. faecalis ATCC29212 (E. faecalis): 2 µg/mL (≈ 2.06 µM)
MIC E. faecalis Vancomycin-resistant (E. faecalis; Vancomycin-resistant): >32 µg/mL
MIC E. coli ATCC25922 (E. coli): >32 µg/mL
MIC E. coli CTX-M-14 (E. coli): >32 µg/mL
MIC E. coli NDM-1 (E. coli): >32 µg/mL
MIC E. coli TEM-1 (E. coli): 16 µg/mL (≈ 16.5 µM)
MIC A. baumannii ATCC19606 (A. baumannii): >32 µg/mL
MIC A. baumannii IMP-4 (A. baumannii; IMP-4): >32 µg/mL
MIC A. baumannii chromosomal class C (A. baumannii; chromosomal class C): >32 µg/mL
MIC A. baumannii imipenem-resistant (A. baumannii; imipenem-resistant): 32 µg/mL (≈ 32.9 µM)
MIC K. pneumoniae ATCC10031 (K. pneumoniae): 16 µg/mL (≈ 16.5 µM)
MIC K. pneumoniae KPC-2 (K. pneumoniae; KPC-2): >32 µg/mL
MIC K. pneumoniae SHV-12 (K. pneumoniae; SHV-12): >32 µg/mL
MIC K. pneumoniae TEM-10 (K. pneumoniae; TEM-10): 32 µg/mL (≈ 32.9 µM)
MIC P. aeruginosa ATCC27853 (P. aeruginosa; ATCC27853): >32 µg/mL
MIC P. aeruginosa HPA101-1477 (P. aeruginosa): >32 µg/mL
MIC H. influenzae ATCC49247 (H. influenzae): 4 µg/mL (≈ 4.11 µM)
MIC H. influenzae erythro > 4, azithro 1 (H. influenzae; erythro > 4, azithro 1): 4 µg/mL (≈ 4.11 µM)

CCC1OC(=O)C(C)C(=O)C(C)C(OC2OC(Cn3cc(-c4cccc(N)n4)nn3)CC(N(C)C)C2O)C(C)(OC)CC(C)CNC(C)C2N(CCCCn3cc(-c4cccc(N)c4)nn3)C(=O)OC12C (stereo not drawn) [FSM-22372]
MIC S. aureus ATCC29213 (S. aureus): >32 µg/mL
MIC S. aureus MRSA: USA100 (S. aureus): >32 µg/mL
MIC S. aureus MRSA: USA300 (S. aureus): >32 µg/mL
MIC S. aureus USA600, GISA (S. aureus): >32 µg/mL
MIC S. aureus erm A genotype (S. aureus): >32 µg/mL
MIC S. pneumoniae ATCC49619 (S. pneumoniae): <0.03125 µg/mL
MIC S. pneumoniae erm B + mef A genotype (S. pneumoniae; erm B + mef A genotype): >32 µg/mL
MIC S. pneumoniae erm B + tet(M, O) genotype (S. pneumoniae; erm B + tet(M, O) genotype): <0.03125 µg/mL
MIC S. pyogenes ATCC19615 (S. pyogenes): <0.03125 µg/mL
MIC S. pyogenes macrolide-resistant (S. pyogenes; macrolide-resistant): 8 µg/mL (≈ 8.1 µM)
MIC E. faecalis ATCC29212 (E. faecalis): 16 µg/mL (≈ 16.2 µM)
MIC E. faecalis Vancomycin-resistant (E. faecalis; Vancomycin-resistant): >32 µg/mL
MIC E. coli ATCC25922 (E. coli): >32 µg/mL
MIC E. coli CTX-M-14 (E. coli): >32 µg/mL
MIC E. coli NDM-1 (E. coli): >32 µg/mL
MIC E. coli TEM-1 (E. coli): >32 µg/mL
MIC A. baumannii ATCC19606 (A. baumannii): >32 µg/mL
MIC A. baumannii IMP-4 (A. baumannii; IMP-4): >32 µg/mL
MIC A. baumannii chromosomal class C (A. baumannii; chromosomal class C): >32 µg/mL
MIC A. baumannii imipenem-resistant (A. baumannii; imipenem-resistant): >32 µg/mL
MIC K. pneumoniae ATCC10031 (K. pneumoniae): >32 µg/mL
MIC K. pneumoniae KPC-2 (K. pneumoniae; KPC-2): >32 µg/mL
MIC K. pneumoniae SHV-12 (K. pneumoniae; SHV-12): >32 µg/mL
MIC K. pneumoniae TEM-10 (K. pneumoniae; TEM-10): >32 µg/mL
MIC P. aeruginosa ATCC27853 (P. aeruginosa; ATCC27853): >32 µg/mL
MIC P. aeruginosa HPA101-1477 (P. aeruginosa): >32 µg/mL
MIC H. influenzae ATCC49247 (H. influenzae): 16 µg/mL (≈ 16.2 µM)
MIC H. influenzae erythro > 4, azithro 1 (H. influenzae; erythro > 4, azithro 1): 16 µg/mL (≈ 16.2 µM)
